Results taken from patent US20220267288A1, “CARDIAC THERAPEUTIC” (priority 2019, published 2022).

Biological target: T1, CYP2J2 (Homo sapiens, UniProt P51589)
T1 sequence (P51589 1-502): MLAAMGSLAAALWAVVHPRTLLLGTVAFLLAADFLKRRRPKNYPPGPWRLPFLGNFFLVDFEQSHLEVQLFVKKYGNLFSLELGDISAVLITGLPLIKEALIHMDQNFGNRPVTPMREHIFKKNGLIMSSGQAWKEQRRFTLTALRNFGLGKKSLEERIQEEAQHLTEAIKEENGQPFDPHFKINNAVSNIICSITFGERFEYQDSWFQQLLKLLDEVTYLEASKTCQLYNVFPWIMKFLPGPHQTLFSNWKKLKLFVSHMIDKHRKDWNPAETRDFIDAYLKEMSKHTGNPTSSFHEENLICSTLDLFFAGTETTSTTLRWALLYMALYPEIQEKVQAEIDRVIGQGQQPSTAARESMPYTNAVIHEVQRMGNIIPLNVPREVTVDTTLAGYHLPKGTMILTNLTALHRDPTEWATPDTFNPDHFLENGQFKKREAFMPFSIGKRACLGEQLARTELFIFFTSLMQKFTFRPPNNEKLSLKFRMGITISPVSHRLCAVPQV
Assay: Time- and concentration-dependent inactivation (MBI) of CYP2J2, rivaroxaban as probe substrate
Format: biochemical
Set-up: purchased BD Gentest (Woburn, Mass.)
Method: Incubations were conducted in triplicates in 96-well plates. Primary incubation mixtures comprising various concentrations of inhibitor (0-20 μM) were pre-incubated at 37° C. for 3 min with CYP450 enzymes (20 pmol/m L) and NADPH B in potassium phosphate buffer (100 mM, pH 7.4). To initiate the enzymatic reaction, 5 μL NADPH A was added to the primary incubation. The final primary incubation mixture volume was 100 μL and contained <1% v/v organic solvent. At different pre-incubation time points (3, 8, 15, 22, 30, and 45 min) after the addition of NADPH A, 5 μL aliquots of the primary incubation were transferred to 95 μL of the secondary incubation containing 50 μM rivaroxaban, the NADPH A and B, and potassium phosphate buffer (100 mM, pH 7.4) to yield a 20-fold dilution. The secondary incubation mixtures were incubated at 37° C. for 30 min with CYP2J2, before 80 μL aliquots were removed and quenched with an equal volume of ice-cold ACN containing 4 μM dexamethasone as IS. The samples were then centrifuged at 3220 g at 4° C. for 30 min before transferring the supernatant to a 96-well plate for liquid chromatography-tandem mass spectrometry (LC-MS/MS) analysis. The main rivaroxaban metabolite, morpholinone hydroxylated metabolite, was quantified using LC-MS/MS analysis.
The mean of triplicate peak area ratios for each concentration and pre-incubation time was normalized to that of 0 μM with the same pre-incubation time. The amount of rivaroxaban metabolite formed during the secondary incubation, a measure of the probe substrate activity remaining, was computed and the natural logarithm of this measure was plotted against inactivation pre-incubation time for each inactivator concentration. […]
In equation 1, kinact=maximum inactivation rate constant at infinite inactivator concentration (in min^−1); KI=concentration of inactivator at the half-maximal rate constant of inactivation (in μM); [I]=in vitro inactivator concentration (in μM). MBI potency (kinact/KI ratio, μM-1·min-1) against human recombinant CYP2J2 is determined for each compound. […]

Row | Structure (SMILES) | inactivation (MBI) of CYP2J2, in words
1 | CCCCc1oc2ccc(NS(C)(=O)=O)cc2c1C(=O)c1ccc(OCCCN(CCCC)CCCC)cc1.Cl [Dronedarone] | demonstrated inactivation of CYP2J2
2 | Cl.[2H]c1c(NS(C)(=O)=O)c([2H])c2c(C(=O)c3ccc(OCCCN(CCCC)CCCC)cc3)c(CCCC)oc2c1[2H] [Poyendarone, Methanesulfonamide, N-(2-butyl-3-(4-(3-(dibutylamino)propoxy)benzoyl)-1-benzo(4,6,7-d3)-furan-5-yl)hydrochloride] | does not cause MBI of CYP2J2
